Results published in patent US8574831B2, “Mutational profiles in HIV-1 reverse transcriptase correlated with phenotypic drug resistance” (Virco N.V., priority 2000, dated 2013).

System: HIV with mutations in the HIV protease sequence
Assay: Phenotypic fold resistance to protease inhibitors, protease mutations 84A/84L/84C/54M/54L/54V in a background (Examples 8-13)
Type: cell-based, HIV-1
Description: As is the case with the genotyping assays, the recombinant virus assay starts with the amplification of viral target sequences by means of PCR. The amplicons are incorporated into a proviral laboratory clone with sequences homologous to those present in the amplicon deleted. This generates a stock of chimeric viruses. The viruses are tested for their ability to grow in the presence of different concentrations of drugs. Results are obtained by calculating IC50 values for each inhibitor and by reporting the results as IC50 values, expressed in μM concentrations, or by computing the ratio of the IC50 values found for the chimeric virus to the IC50 values found for a wild type susceptible laboratory virus tested in parallel. In the latter case, resistance is expressed as “fold-resistance” compared to a wild-type susceptible HIV-1 strain. In order to meet the need for high-volume testing and a short turn-around time for an individual test, the latest generation of phenotyping assays has undergone further modifications. The use of reporter gene systems for susceptibility testing allows the implementation of laboratory automation and standardization. See Pauwels, et al., J. Virol. Methods 20, 309-321 (1998); Paulous, S., et al., International Workshop on HIV Drug Resistance, Treatment Strategies and Eradication, St. Petersburg, Fla., USA. Abstr. 46 (1997); and Deeks, S. G., et al., 2nd International Workshop on HIV Drug Resistance and Treatment Strategies, Lake Maggiore, Italy. Abstr. 53 (1998).
The ANTIVIROGRAM® assay (Virco) (WO 97/27480) is based on homologous recombination of patient derived HIV-1 gag/PR/RT sequences into a proviral HIV-1 clone correspondingly deleted for the gag/PR/RT sequences. See Pauwels, et al., J. Virol. Methods 20, 309-321 (1998). A similar assay (Phenosense ViroLogic) is based on enzymatic ligation of patient-derived PR/RT sequences into a correspondingly deleted proviral vector carrying an indicator gene, luciferase, inserted in the deleted HIV-1 envelope gene. See Deeks, S. G., et al., 2nd International Workshop on HIV Drug Resistance and Treatment Strategies, Lake Maggiore, Italy. Abstr. 53 (1998). Hertogs et al. Antimicrob. Agents Chemother. 44(3) 568-573 (2000) the disclosures of which are herein incorporated by reference.
The methods of monitoring HIV-1 drug resistance, may also be used in combination with phenotypic drug resistance testing of viral isolates. For example, in one embodiment, a phenotypic test is utilized that is based upon the construction of chimeric HIV-1 strains composed of the protease (PR) and reverse transcriptase (RT) gene sequences which are isolated and amplified from the patient viral RNA. These strains may subsequently be recombined inside CD4+ T cells with a standard laboratory isogenic (HXB2) HIV-1 DNA construct from which the PR/RT gene sequences were deleted. The recombinant strains may then be grown in the presence of the above-mentioned antiviral drugs and the susceptibility of the viral isolates may be expressed as fold-change value of the IC50 of the drug on the patient isolates over the IC50 of the drug on a wild-type laboratory reference strain.

SMILES: Cc1c(O)cccc1C(=O)N[C@@H](CSc1ccccc1)[C@H](O)CN1C[C@H]2CCCC[C@H]2C[C@H]1C(=O)NC(C)(C)C [Nelfinavir, nelfinavir]
- Fold change in IC50 (Table 12, V055199, genotype 10I + 33F + 54M + 90M): 11.7 fold
- Fold change in IC50 (Table 13, V19263, genotype 77I): 0.9 fold
- Fold change in IC50 (Table 13, V20160, genotype WT): 0.7 fold
- Fold change in IC50 (Table 13, V021667, genotype 10I): 1.0 fold
- Fold change in IC50 (Table 13, V030496, genotype 10I + 77I): 0.7 fold
- Fold change in IC50 (Table 13, V048868, genotype 10I + 54L + 71V + 77I + 90M): 15.6 fold
- Fold change in IC50 (Table 13, V048874, genotype 10I + 33F + 54L + 71V + 77I + 90M): 14.5 fold
- Fold change in IC50 (Table 13, V048875, genotype 10I + 33F + 54L + 71V + 77I + 90M): 12.5 fold
- Fold change in IC50 (Table 13, V048877, genotype 10I + 33F + 77I + 90M): 9.4 fold
- Fold change in IC50 (Table 13, V048880, genotype 10I + 33F + 77I + 90M): 4.9 fold
- Fold change in IC50 (Table 13, V052940, genotype 71V): 0.6 fold
- Fold change in IC50 (Table 13, V052942, genotype 10I + 71V): 0.9 fold
- Fold change in IC50 (Table 13, V052943, genotype 10I + 90M): 2.2 fold
- Fold change in IC50 (Table 13, V052944, genotype 10I + 90M): 1.4 fold
- Fold change in IC50 (Table 13, V052945, genotype 77I + 90M): 3.0 fold
- Fold change in IC50 (Table 13, V052946, genotype 71V + 90M): 3.0 fold
- Fold change in IC50 (Table 13, V052947, genotype 10I + 77I + 90M): 8.2 fold
- Fold change in IC50 (Table 13, V052948, genotype 10I + 71V + 90M): 9.0 fold
- Fold change in IC50 (Table 13, V052949, genotype 10I + 71V + 77I + 90M): 8.6 fold
- Fold change in IC50 (Table 13, V052950, genotype 33F): 1.0 fold
- Fold change in IC50 (Table 13, V052951, genotype 33F + 77I): 5.2 fold
- Fold change in IC50 (Table 13, V052953, genotype 10I + 33F + 77I): 0.9 fold
- Fold change in IC50 (Table 13, V052954, genotype 33F + 77I + 90M): 5.9 fold
- Fold change in IC50 (Table 13, V052955, genotype 33F + 71V + 90M): 36.6 fold
- Fold change in IC50 (Table 13, V052968, genotype 10L/I + 33F/L + 54L + 77I): 3.5 fold
- Fold change in IC50 (Table 13, V052969, genotype 10I + 33F + 54L + 90M): 3.4 fold
- Fold change in IC50 (Table 13, V052970, genotype 54L): 1.6 fold
- Fold change in IC50 (Table 13, V052971, genotype 10I + 54L): 1.0 fold
- Fold change in IC50 (Table 13, V052972, genotype 54L + 77I): 3.0 fold
- Fold change in IC50 (Table 13, V052973, genotype 10I + 54L + 77I): 2.8 fold
- Fold change in IC50 (Table 13, V052974, genotype 10I + 54L + 90M): 2.6 fold
- Fold change in IC50 (Table 13, V052975, genotype 10I + 54L + 71V + 90M): 41.3 fold
- Fold change in IC50 (Table 13, V052976, genotype 10I + 54L + 71V + 77I + 90M): 8.9 fold
- Fold change in IC50 (Table 13, V053832, genotype 10I + 33F): 1.6 fold
- Fold change in IC50 (Table 13, V053854, genotype 54L + 71V): 5.9 fold
- Fold change in IC50 (Virco ID 214846, genotype 10I + 33F + 54V + 71V + 77I + 90M, vs mean IC50 of wild type laboratory HIV strain): 43.5 fold
- Fold change in IC50 (Virco ID V021667, genotype 10I, vs mean IC50 of wild type laboratory HIV strain): 1.0 fold
- Fold change in IC50 (Virco ID V030496, genotype 10I + 77I, vs mean IC50 of wild type laboratory HIV strain): 0.7 fold
- Fold change in IC50 (Virco ID V048876, genotype 33F + 54V + 77I + 90M, vs mean IC50 of wild type laboratory HIV strain): 1.6 fold
- Fold change in IC50 (Virco ID V048877, genotype 10I + 33F + 77I + 90M, vs mean IC50 of wild type laboratory HIV strain): 9.4 fold
- Fold change in IC50 (Virco ID V048880, genotype 10I + 33F + 77I + 90M, vs mean IC50 of wild type laboratory HIV strain): 4.9 fold
- Fold change in IC50 (Virco ID V052940, genotype 71V, vs mean IC50 of wild type laboratory HIV strain): 0.6 fold
- Fold change in IC50 (Virco ID V052942, genotype 10I + 71V, vs mean IC50 of wild type laboratory HIV strain): 0.9 fold
- Fold change in IC50 (Virco ID V052943, genotype 10I + 90M, vs mean IC50 of wild type laboratory HIV strain): 2.2 fold
- Fold change in IC50 (Virco ID V052944, genotype 10I + 90M, vs mean IC50 of wild type laboratory HIV strain): 1.4 fold
- Fold change in IC50 (Virco ID V052946, genotype 71V + 90M, vs mean IC50 of wild type laboratory HIV strain): 3.0 fold
- Fold change in IC50 (Virco ID V052947, genotype 10I + 77I + 90M, vs mean IC50 of wild type laboratory HIV strain): 8.2 fold
- Fold change in IC50 (Virco ID V052948, genotype 10I + 71V + 90M, vs mean IC50 of wild type laboratory HIV strain): 9.0 fold
- Fold change in IC50 (Virco ID V052949, genotype 10I + 71V + 77I + 90M, vs mean IC50 of wild type laboratory HIV strain): 8.6 fold
- Fold change in IC50 (Virco ID V052950, genotype 33F, vs mean IC50 of wild type laboratory HIV strain): 1.0 fold
- Fold change in IC50 (Virco ID V052951, genotype 33F + 77I, vs mean IC50 of wild type laboratory HIV strain): 5.2 fold
- Fold change in IC50 (Virco ID V052953, genotype 10I + 33F + 77I, vs mean IC50 of wild type laboratory HIV strain): 0.9 fold
- Fold change in IC50 (Virco ID V052954, genotype 33F + 77I + 90M, vs mean IC50 of wild type laboratory HIV strain): 5.9 fold
- Fold change in IC50 (Virco ID V052955, genotype 33F + 71V + 90M, vs mean IC50 of wild type laboratory HIV strain): 36.6 fold
- Fold change in IC50 (Virco ID V052957, genotype 10I + 33F + 54V + 90M, vs mean IC50 of wild type laboratory HIV strain): 6.9 fold
- Fold change in IC50 (Virco ID V052958, genotype 10I + 33F + 54V + 77I + 90M, vs mean IC50 of wild type laboratory HIV strain): 4.8 fold
- Fold change in IC50 (Virco ID V052959, genotype 10I + 33F + 54V + 77I + 90M, vs mean IC50 of wild type laboratory HIV strain): 7.5 fold
- Fold change in IC50 (Virco ID V052960, genotype 10I + 33F + 54V + 71V + 90M, vs mean IC50 of wild type laboratory HIV strain): 40.7 fold
- Fold change in IC50 (Virco ID V052961, genotype 54V, vs mean IC50 of wild type laboratory HIV strain): 1.0 fold
- Fold change in IC50 (Virco ID V052962, genotype 10I + 54V, vs mean IC50 of wild type laboratory HIV strain): 0.6 fold
- Fold change in IC50 (Virco ID V052963, genotype 54V + 77I + 90M, vs mean IC50 of wild type laboratory HIV strain): 3.2 fold
- Fold change in IC50 (Virco ID V052964, genotype 54V + 71V + 90M, vs mean IC50 of wild type laboratory HIV strain): 3.3 fold
- Fold change in IC50 (Virco ID V052965, genotype 10I + 54V + 77I + 90M, vs mean IC50 of wild type laboratory HIV strain): 15.1 fold
- Fold change in IC50 (Virco ID V052966, genotype 10I + 54V + 71V + 90M, vs mean IC50 of wild type laboratory HIV strain): 55.4 fold
- Fold change in IC50 (Virco ID V052967, genotype 10I + 54V + 71V + 77I + 90M, vs mean IC50 of wild type laboratory HIV strain): 0.8 fold
- Fold change in IC50 (Virco ID V053358, genotype 33F + 54V + 77I + 90M, vs mean IC50 of wild type laboratory HIV strain): 2.1 fold
- Fold change in IC50 (Virco ID V053831, genotype 33F + 54V, vs mean IC50 of wild type laboratory HIV strain): 5.9 fold
- Fold change in IC50 (Virco ID V053832, genotype 10I + 33F, vs mean IC50 of wild type laboratory HIV strain): 1.6 fold
